Test results from patent publication US8697725B2, “Tetrahydroquinoline derivatives and their pharmaceutical use” (GlaxoSmithKline LLC, priority 2009, dated 2014).
Where a name gives a salt, the structure may show the parent alone.

test system: TNFα; assay: LPS Stimulated Whole Blood Measuring TNFα Levels Assay; assay type: cell-based; details: 24 h, LPS 200 ng/ml, immunoassay, read-out: pIC50, TNFα levels in LPS stimulated whole blood (converted)
Procedure: LPS Stimulated Whole Blood Measuring TNFα Levels Assay
Activation of monocytic cells by agonists of toll-like receptors such as bacterial lipopolysaccharide (LPS) results in production of key inflammatory mediators including TNFα. Such pathways are widely considered to be central to the pathophysiology of a range of auto-immune and inflammatory disorders.
Compounds to be tested are diluted to give a range of appropriate concentrations and 1 ul of the dilution stocks is added to wells of a 96 plate. Following addition of whole blood (130 ul) the plates are incubated at 37 degrees (5% CO2) for 30 min before the addition of 10 ul of 2.8 ug/ml lipopolysaccharides (LPS), diluted in complete RPMI 1640 (final concentration=200 ng/ml), to give a total volume of 140 ul per well. After further incubation for 24 hours at 37 degrees, 140 ul of PBS are added to each well. The plates are sealed, shaken for 10 minutes and then centrifuged (2500 rpm×10 min). 100 ul of the supernatant are removed and TNFα levels assayed by immunoassay (typically by MesoScale Discovery technology) either immediately or following storage at −20 degrees. Dose response curves for each compound was generated from the data and an IC50 value was calculated.

IC50, ≤ 6.31 µM:
CC(=O)N1c2ccc(-c3cnc(N4CCCCC4)nc3)cc2[C@@H](NC(=O)OC(C)C)C[C@H]1C (racemic) [Example 49, 1-methylethyl {(cis)-1-acetyl-2-methyl-6-[2-(1-piperidinyl)-5-pyrimidinyl]-1,2,3,4-tetrahydro-4-quinolinyl}carbamate hydrochloride]
CC(=O)N1c2ccc(-c3cc(CN4CCCCC4)co3)cc2[C@@H](NC(=O)OC(C)C)C[C@H]1C (racemic) [Example 18, 1-methylethyl {(cis)-1-acetyl-2-methyl-6-[4-(1-piperidinylmethyl)-2-furanyl]-1,2,3,4-tetrahydro-4-quinolinyl}carbamate]
CC(=O)N1c2ccc(Br)cc2[C@H](NC(=O)OC(C)C)C[C@@H]1C [Example 4, 1-methylethyl[(2S,4R)-1-acetyl-6-bromo-2-methyl-1,2,3,4-tetrahydro-4-quinolinyl]carbamate]
CC(=O)N1c2ccc(-c3cnc(N4CCOCC4)nc3)cc2[C@@H](NC(=O)OC(C)C)C[C@H]1C (racemic) [Example 51, 1-methylethyl {(cis)-1-acetyl-2-methyl-6-[2-(4-morpholinyl)-5-pyrimidinyl]-1,2,3,4-tetrahydro-4-quinolinyl}carbamate hydrochloride]
CC(=O)N1c2ccc(-c3ccc(CN4CCCCC4)cc3)cc2[C@@H](NC(=O)OC(C)(C)C)C[C@H]1C (racemic) [Example 17, 1,1-dimethylethyl {(cis)-1-acetyl-2-methyl-6-[4-(1-piperidinylmethyl)phenyl]-1,2,3,4-tetrahydro-4-quinolinyl}carbamate]
CC(=O)N1c2ccc(-c3ccc(C#N)cc3)cc2[C@H](NC(=O)OC(C)C)C[C@@H]1C [Example 120, 1-Methylethyl[(2S,4R)-1-acetyl-6-(4-cyanophenyl)-2-methyl-1,2,3,4-tetrahydro-4-quinolinyl]carbamate]
CC(=O)N1c2ccc(-c3cnn(CCN4CCC(N)CC4)c3)cc2[C@@H](NC(=O)OC(C)C)C[C@H]1C (racemic) [Example 39, 1-methylethyl((cis)-1-acetyl-6-{1-[2-(4-amino-1-piperidinyl)ethyl]-1H-pyrazol-4-yl}-2-methyl-1,2,3,4-tetrahydro-4-quinolinyl)carbamate dihydrochloride]
CC(=O)N1c2ccc(-c3ccc(N4CCNCC4)nn3)cc2[C@@H](NC(=O)OC(C)C)C[C@H]1C (racemic) [Example 45, 1-methylethyl {(cis)-1-acetyl-2-methyl-6-[6-(1-piperazinyl)-3-pyridazinyl]-1,2,3,4-tetrahydro-4-quinolinyl}carbamate hydrochloride]
CC(=O)N1c2ccc(Br)cc2[C@@H](NC(=O)OC2CCC2)C[C@H]1C (racemic) [Example 33, cyclobutyl[(cis)-1-acetyl-6-bromo-2-methyl-1,2,3,4-tetrahydro-4-quinolinyl]carbamate]
CC(=O)N1c2ccc(-c3ccc(N4CCOCC4)nc3)cc2[C@@H](NC(=O)OC(C)C)C[C@H]1C (racemic) [Example 10, 1-methylethyl {(cis)-1-acetyl-2-methyl-6-[6-(4-morpholinyl)-3-pyridinyl]-1,2,3,4-tetrahydro-4-quinolinyl}carbamate hydrochloride]
CC(=O)N1c2ccc(-c3csc(CN4CCCCC4)n3)cc2[C@@H](NC(=O)OC(C)C)C[C@H]1C (racemic) [Example 41, 1-methylethyl {(cis)-1-acetyl-2-methyl-6-[2-(1-piperidinylmethyl)-1,3-thiazol-4-yl]-1,2,3,4-tetrahydro-4-quinolinyl}carbamate]
CC(=O)N1c2ccc(-c3ccc(N(C)C)nc3)cc2[C@@H](NC(=O)OC(C)C)C[C@H]1C (racemic) [Example 48, 1-methylethyl {(cis)-1-acetyl-6-[6-(dimethylamino)-3-pyridinyl]-2-methyl-1,2,3,4-tetrahydro-4-quinolinyl}carbamate hydrochloride]
CC(=O)N1c2ccc(-c3cnc(N4CCNCC4)nc3)cc2[C@@H](NC(=O)OC(C)C)C[C@H]1C (racemic) [Example 44, 1-methylethyl {(cis)-1-acetyl-2-methyl-6-[2-(1-piperazinyl)-5-pyrimidinyl]-1,2,3,4-tetrahydro-4-quinolinyl}carbamate hydrochloride]
CC(=O)N1c2ccc(-c3ccc(N4CCN(C(=O)OC(C)(C)C)CC4)nc3)cc2[C@@H](NC(=O)OC(C)C)C[C@H]1C (racemic) [Example 8, 1,1-dimethylethyl 4-{5-[(cis)-1-acetyl-2-methyl-4-({[(1-methylethyl)oxy]carbonyl}amino)-1,2,3,4-tetrahydro-6-quinolinyl]-2-pyridinyl}-1-piperazinecarboxylate]
CC(=O)N1c2ccc(-c3ccc(CN4CCCCC4)cc3)cc2[C@@H](NC(=O)OC2CCCC2)C[C@H]1C (racemic) [Example 36, cyclopentyl {(cis)-1-acetyl-2-methyl-6-[4-(1-piperidinylmethyl)phenyl]-1,2,3,4-tetrahydro-4-quinolinyl}carbamate]
CC(=O)N1c2ccc(-c3ccc(CO)cc3)cc2[C@H](NC(=O)OC(C)C)C[C@@H]1C (relative stereo) [Example 15, 1-methylethyl {(cis)-1-acetyl-6-[4-(hydroxymethyl)phenyl]-2-methyl-1,2,3,4-tetrahydro-4-quinolinyl}carbamate]
